Test results reported in paper PMC11267282, “Ultrashort‐Peptide‐Responsive Gene Switches for Regulation of Therapeutic Protein Expression in Mammalian Cells” (Advanced Science, 2024).
“Also recorded” adds a separate entry of the source. Where a SMILES comes first, the peptide text is derived from it.

Columns and labels:
[1] = tested on: T1D mice with HEK-XIP implants; assay: Serum inflammatory cytokines (ELISA); format: in vivo, mouse; settings: four weeks after implantation, n = 5; for Serum IFN-γ (significance) / Serum TNF-α (significance): vs non-induced; for Serum IL-6: undetectable
Experimental: The concentrations of interferon gamma (IFN‐γ), interleukin‐6 (IL‐6), and tumor necrosis factor alpha (TNF‐α) in mouse serum were assessed by the use of specific enzyme‐linked immunosorbent assay (ELISA) kits. IFN‐γ levels were analyzed using the IFN gamma mouse ELISA kit (cat. no. ab282874, Abcam), IL‐6 levels were determined with the IL‐6 mouse ELISA kit (cat. no. ab100712, Abcam), and TNF‐α levels were quantified utilizing the TNF alpha mouse ELISA kit (cat. no. BMS607HS, ThermoFisher). Freund's Complete Adjuvant (cat. no.: 344289, Sigma‐Aldrich) and lipopolysaccharides (cat. no.: L2630‐10MG, Sigma‐Aldrich) were utilized to induce cytokine production as positive controls. Blood samples were collected from mice treated with adjuvant and LPS 24 hours post‐treatment. The quantification of cytokines from these groups was conducted using the same ELISA kit.

[2] = tested on: engineered mammalian cells; assay: Resazurin-based cell viability assay
Experimental: Cells were incubated with resazurin (cat. no. R7017, Sigma‐Aldrich, USA) at a concentration of 50 µg ml^−1 for 2 h. Then fluorescence was assayed with a plate reader (Tecan Spark, Tecan Group Ltd., Switzerland) at excitation and emission wavelengths of 540 and 590 nm, respectively. The fluorescence intensity of non‐induced cells was set to 100%.

C57BL/6 mice = assay: Antibody analysis for peptide immunogenicity; settings: s.c., three doses of 5 mg kg−1 at two-week intervals, with Freund's adjuvant, OD450, n = 3
Experimental: Eight‐week‐old wild‐type male mice were immunized for peptide immunogenicity assessments. Briefly, peptide solution was premixed 1:1 with Freund's adjuvant in a total volume of 400 µl by thorough vigorous shaking. Then peptide/adjuvant mixes were injected subcutaneously in 30 min at a dose of 5 mg kg^−1. Mice were immunized at 2‐week intervals. Negative controls (mock‐immunized) were also included in the study. One week after the third dose of immunization, blood was sampled for antibody analysis.
For antibody analysis, the peptides were coated on the EIA/RIA plate (cat. no. 3590, Corning Inc. Life Sciences) in carbonate coating buffer (cat. no. CB01100, ThermoFisher) at 4 °C overnight. The next day the plate was blocked with 20% nonfat milk (cat. no. A0830,1000, AppliChem Panreac) for 24 h at 4 °C, and incubated with antibodies at the indicated dilution or at 37 °C for 1 h. Next, horseradish peroxidase‐linked anti‐mouse IgG (cat. no. LNA931V, GE Healthcare, USA) was added to the plate at a dilution of 1:1000 for 1 h at 37 °C. Between each step, the plate was washed with PBS at least three times. Then, 100 µl ultra TMB substrate solution (cat. no. 34028, ThermoFisher) was added to the plate at room temperature for 15 min, followed by the addition of 50 µl of stop solution (2 M H2SO4). The OD450 was measured by a plate reader (Tecan Spark, Tecan Group Ltd., Switzerland). Mouse anti‐HA antibody (cat. no. 901523, BioLegend, USA, 1:1000 dilution) was used as a positive control.

[3] = tested on: CD4 / CD8 T cells of immunized mice; assay: T-cell response, intracellular cytokine staining; format: in vivo, mouse; settings: FACS intracellular cytokine staining, spleen and draining lymph nodes, n = 3
Experimental: Mice were immunized at 2‐week intervals.
Isolated lymphocytes from spleens and lymph nodes were placed in a U‐bottom 96‐well plate and resuspended in 100 µl complete RPMI‐1640 medium, which contains FBS (10% v/v), HEPES (pH 7.2∼7.5, 1% v/v, Gibco), penicillin/streptomycin (1% v/v, Gibco), sodium pyruvate (1% v/v, Gibco) and 2‐mercaptoethanol (0.1% v/v, Gibco). Cells were stimulated with 1 µM cognate peptides or with Cell Stimulation Cocktail (a cocktail of phorbol 12‐myristate 13‐acetate (PMA) and ionomycin, Invitrogen) as positive controls at 37 °C for 4 h, in the presence of 10 µM brefeldin A (MedChemExpress) to inhibit cytokine secretion. Next, the cells were washed with 150 µl FACS buffer, and centrifuged with 1,500 g for 2 min. The supernatant was discarded and the cells were blocked with anti‐CD16/32 antibody (1:100, 93, 101302, BioLegend) in 20 µl/well FACS buffer at 4 °C for 15 min. Then 20 µl/well antibody cocktail containing anti‐CD3ε (1:500, 17A2, 100306, BioLegend), anti‐CD4 (1:500, RM4‐5, 100526, BioLegend), anti‐CD8β (1:500, YTS256.7.7, 126606, BioLegend), and anti‐CD45 (1:500, S18009F, 157211, BioLegend) was added to the cell mixture for 20 min incubation at 4 °C. […] Gate margins were determined on the basis of isotype controls and fluorescence‐minus‐one controls.

HEK-293T cells [4] = assay: Cell growth kinetics of HEK-293 cells; format: cell-based, human; settings: non-transformed HEK-293T, 10-250 µM, 48 h, n = 4
Experimental: (§1) HEK‐293T cells were seeded in a 10 cm diameter dish at a density of 2.5 × 10^5 cells/ml. After 24 h of culture, the cells were transfected with 35 µg of pJH3 (PhCMV‐SEAP‐pA) overnight, then resuspended and evenly distributed into two 24‐well plates. The treatment groups were treated with XIP at the indicated concentration. Samples were collected at successive time points for two days to quantify viable cells and SEAP production.

HEK-293T cells [5] = assay: Constitutive recombinant SEAP production (pJH3); format: cell-based, human; settings: pJH3-transfected, 10-250 µM, 48 h, n = 4
Experimental: as §1
SEAP reporter levels in cell culture supernatants were quantified using a colorimetric assay. In brief, 20 µl of cell culture supernatant was mixed with 80 µl of PBS buffer (cat. no. 14190144, ThermoFisher) and heat‐inactivated at 65 °C for 30 min. Then 80 µl of 2x SEAP assay buffer (20 mM homoarginine, 1 mM MgCl2, 21% diethanolamine, pH 9.8) was mixed with 20 µl of substrate solution, and 100 µl of the buffer‐substrate mixture was added to 100 µl of the diluted heat‐inactivated sample. Absorbance at 405 nm was recorded using a plate reader (Tecan Spark, Tecan Group Ltd., Switzerland) for 30 min at 37 °C to determine the SEAP levels.

[6] = Membrane penetration inferred from intracellular gene switch activation; format: in vitro ADME; settings: HEK-293T with intracellular ComR switch; inferred from SEAP induction
Experimental: (§2) Human embryonic kidney cells (HEK‐293T, ATCC: CRL‐11268), human telomerase‐immortalized mesenchymal stem cells (hMSC‐TERT),^[ [56] ^] human fibrosarcoma cells (HT‐1080, ATCC: CCL‐121), human cervical adenocarcinoma cells (HeLa, ATCC: CCL‐2), Chinese hamster ovary cells (CHO‐K1, ATCC: CCL‐61), baby hamster kidney cells (BHK‐21, ATCC: CCL‐10), and human liver cancer cells (Hep G2, ATCC: CRL‐11997) were cultured in Dulbecco's modified Eagle's medium (DMEM, cat. no. 52100–39, Thermo Fisher Scientific) containing 10% fetal bovine serum (FBS, cat. no. F7524, lot no. 022M3395, Sigma‐Aldrich) and 1% (v/v) streptomycin/penicillin (cat. no. L0022, Biowest). All mammalian cells were grown at 37 °C in a humidified atmosphere containing 5% CO2. For all transient transfections, 15 000 cells were seeded per well of a 96‐well plate (cat. no. 3599, Corning Inc. Life Sciences) overnight. Cells were transfected by mixing 100 ng of DNA and polyethyleneimine (PEI, 24765‐2, Polysciences) in a ratio of 1:4. […] The cell density was calculated using a cell counter (CellDrop BF Brightfield Cell Counter, DeNovix Inc.)
(§3) SEAP reporter levels in cell culture supernatants were quantified using a colorimetric assay. […] Absorbance at 405 nm was recorded using a plate reader (Tecan Spark, Tecan Group Ltd., Switzerland) for 30 min at 37 °C to determine the SEAP levels.

[7] = tested on: ComREXTRA (ComR-EpoR TM-IL-6RB); assay: SEAP reporter assay, ComREXTRA-based synthetic receptor, transiently transfected HEK-293T; format: cell-based, Streptococcus vestibularis; settings: IL-6 50 ng/mL or XIP 50 μmol/L
Experimental: as §2, §3

Antibody response (C57BL/6 mice; listed as XIP_ID3) | Compound | Serum IFN-γ (significance) [1] | Serum TNF-α (significance) [1] | Serum IL-6 [1] | HEK-XIP cell viability ([2]; 50 and 250 µmol/L, 24 h, n = 4) | Antibody response (C57BL/6 mice) | Peptide-specific T-cell response [3] | Effect on growth kinetics (HEK-293T cells [4]) | Effect on constitutive SEAP production (HEK-293T cells [5]) | Cell viability under overstimulation ([2]; ComREXTRA-expressing HEK-293T, 50/200/500 µmol/L, 24 h, n = 4) | Cytotoxicity (result in words) ([2]; HEK-293T / HEK-XIP / mammalian cells, concentration range tested) | Cell viability (significance) ([2]; engineered HEK-293T, ComR operator variants, 150 and 500 µmol/L, n = 4) | Cell viability (significance) ([2]; seven cell lines expressing ComREXTRA-based system, 250 μM, n = 4) | Cell viability (significance) ([2]; seven cell lines with first system (HEK-293T, hMSC-TERT, HT-1080, HeLa, CHO-K1, BHK21, HepG2), 250 μM, n = 4) | Antibody response (C57BL/6 mice; listed as XIP_WT) | Membrane penetration [6] | SEAP induction of XIPEXTRA system ([7]; n = 4) | SEAP induction of XIPEXTRA system ([7]; n = 4, listed as IL‐6)
ns | CC(C)[C@H](N)C(=O)N1CCC[C@H]1C(=O)N[C@@H](Cc1ccccc1)C(=O)N[C@@H](Cc1ccccc1)C(=O)N[C@@H](Cc1ccc(O)cc1)C(=O)N[C@@H](Cc1ccc(O)cc1)C(=O)O [ID3] (H-VPFFYY-OH) | ns | ns | Below 0.82 pg/ml | ns | no detectable antibodies’ response | no peptide‐specific T‐cell response was detected |  |  |  |  |  |  |  |  |  |  | 
 | CC[C@H](C)[C@H](NC(=O)[C@H](CCSC)NC(=O)[C@H](Cc1ccccc1)NC(=O)[C@H](Cc1ccccc1)NC(=O)[C@@H]1CCCN1C(=O)[C@@H](N)C(C)C)C(=O)N[C@@H](Cc1ccc(O)cc1)C(=O)N[C@@H](Cc1ccc(O)cc1)C(=O)O [XIP, sigX/comX-inducing peptide] (H-VPFFMIYY-OH) | ns | ns | Below 0.82 pg/ml |  | no detectable antibodies’ response | no peptide‐specific T‐cell response was detected | ns and negligible effect | ns and negligible effect | ns and no significant difference of cell viability | no significant impact on cell viability | ns | ns | ns | ns | penetration ability across the mammalian cell membrane; also recorded: efficiently traverses the mammalian cell membrane |  | 
 | interleukin 6 [IL-6] |  |  |  |  |  |  |  |  |  |  |  |  |  |  |  | ns | no apparent induction; also recorded: no detectable activation
